For the data set, the system named is GA-primed murine splenocytes.

In the case of glatiramer acetate [GA], the “AVG expression CYP2S1” value was 6.418.

Values taken from patent US20140193827A1 (TEVA PHARMACEUTICAL INDUSTRIES, LTD., priority 2013, published 2014).
